Assay results: patent US20170008928A1, “NOVEL PEPTIDES AND PEPTIDE DERIVATIVES AND USES THEREOF” (Novo Nordisk A/S, priority 2015, published 2017)
Where two headings read alike, the source gives them in different places. Starred links: 1 amine or outer side, 2 acyl side, 3 side chain; linkers in the order of their positions; H or OH if unused. Non-standard residues stand in square brackets, D forms with d. Residues, ends and D or L forms follow the SMILES beside them. *: point of attachment. Phe(4-CH2SO3H) = N[C@@H](Cc1ccc(CS(=O)(=O)O)cc1)C(=O)O; sY = N[C@@H](Cc1ccc(OS(=O)(=O)O)cc1)C(=O)O; C18 diacid = O=C(O)CCCCCCCCCCCCCCCCC(=O)*; C16 diacid = O=C(O)CCCCCCCCCCCCCCC(=O)*; γGlu = O=C(O)[C@H](CCC(=O)[*:2])N[*:1]; βAsp = O=C(O)[C@H](CC(=O)[*:2])N[*:1]; NMeF = CN[C@@H](Cc1ccccc1)C(=O)O; dNMeD = CN[C@H](CC(=O)O)C(=O)O; Nle = CCCC[C@H](N)C(=O)O; AEEA = NCCOCCOCC(=O)O

Legend:
[1] = molecular target: T1, human cholecystokinin-1 receptor (CCK-1R) (Homo sapiens, UniProt P32238); assay: In vitro potency on CCK-1R, whole cell functional assay (IP1 accumulation, IP-One HTRF); assay type: cell-based
T1 construct: host or cells: 1321-N1 cells
T1 sequence (P32238 1-428): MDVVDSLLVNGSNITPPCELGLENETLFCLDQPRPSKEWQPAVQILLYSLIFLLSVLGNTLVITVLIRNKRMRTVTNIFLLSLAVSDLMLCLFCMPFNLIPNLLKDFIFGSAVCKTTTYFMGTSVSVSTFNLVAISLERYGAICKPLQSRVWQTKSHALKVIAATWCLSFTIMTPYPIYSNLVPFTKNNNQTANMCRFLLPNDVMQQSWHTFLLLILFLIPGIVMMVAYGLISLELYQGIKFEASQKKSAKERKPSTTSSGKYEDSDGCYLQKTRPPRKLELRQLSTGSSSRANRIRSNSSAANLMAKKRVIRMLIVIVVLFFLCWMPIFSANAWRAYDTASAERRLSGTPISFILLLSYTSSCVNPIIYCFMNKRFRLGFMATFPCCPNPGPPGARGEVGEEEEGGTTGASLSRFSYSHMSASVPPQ

[2] = molecular target: T2, human cholecystokinin-2 receptor (CCK-2R) (Homo sapiens, UniProt P32239); assay: In vitro receptor binding to CCK-2R, SPA displacement of [125I]-CCK-8s from plasma membranes
T2 construct: host or cells: 1321-N1 cells (plasma membranes prepared by Evotec AG Hamburg)
T2 sequence (P32239 1-447): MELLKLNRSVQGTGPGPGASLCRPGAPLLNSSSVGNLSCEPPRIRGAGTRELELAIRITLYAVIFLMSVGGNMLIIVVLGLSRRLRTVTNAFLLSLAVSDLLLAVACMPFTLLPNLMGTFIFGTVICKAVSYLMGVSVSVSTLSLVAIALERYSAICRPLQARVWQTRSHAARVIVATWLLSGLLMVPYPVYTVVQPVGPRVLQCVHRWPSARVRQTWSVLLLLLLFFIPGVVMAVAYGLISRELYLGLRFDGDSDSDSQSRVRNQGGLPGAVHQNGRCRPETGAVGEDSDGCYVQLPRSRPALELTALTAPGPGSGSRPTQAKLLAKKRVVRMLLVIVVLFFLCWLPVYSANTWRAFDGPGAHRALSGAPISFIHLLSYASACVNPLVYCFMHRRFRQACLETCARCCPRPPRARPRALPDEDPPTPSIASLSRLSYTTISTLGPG

[3] = molecular target: T1, human cholecystokinin-1 receptor (CCK-1R); assay: In vitro receptor binding to CCK-1R, SPA displacement of [125I]-CCK-8s from plasma membranes; settings: for CCK-1R binding selectivity (IC50 (CCK-2R)/IC50 (CCK-1R)): ratio of binding IC50 values, >1 = preference for CCK-1R
Experimental: The in vitro binding affinity is a measure of the strength of attraction between a receptor and its ligand.
Displacement of radio ligand was measured as reduction in light emission from SPA beads.
The cells used in these assays were 1321-N1 cells stably expressing the CCK-1R or the CCK-2R (Perkin Elmer product numbers ES-530-A and ES-531-A, respectively see www.perkinelmer.com/Catalog/Product/ID/ES-530-A or -ES-531-A, respectively).
The cells were cultured in an incubator (95% RH (relative humidity), 5% (of standard atmospheric pressure) CO2, 37° C.) in cell culture medium (DMEM (Lonza catalogue BE-12-604F/U1), with 10% (v/v) Foetal Calf Serum (FCS, Gibco catalogue 16140-071), 1% (w/w) Sodium pyruvate (Gibco catalogue 11360-039), 500 μg/ml Geneticin® (G418) (Gibco catalogue 10131-027), 25 μg/ml Zeocin™ (Invitrogen catalogue R250-05), 1% (w/w) Pen/Strep (Gibco catalogue 15140-122)).
Plasma membranes were prepared by Evotec AG Hamburg by use of the ParrBomb (#4635, Parr Instrument Company). Cells were lysed with a lysis buffer (50 mM Tris, 2.5 mM EDTA, pH7) with added protease inhibitors (Complete Proteaseinhibitors EDTA-free (#05056489001, Roche), 1 tablet per 50 mL lysis buffer). The membrane fraction was separated by centrifugation. First, the cell lysate was centrifuged at 1000×g for 10 minutes at 4° C. The pellet was discarded and the supernatant was then centrifuged at 100.000×g for 30 minutes at 4° C. The supernatant was discarded and the pellet was re-suspended in 1 ml/5×10^8 cells ice cold membrane buffer (50 mM Tris, 320 mM Sucrose and Complete Proteaseinhibitors EDTA-free (#05056489001, Roche); pH7.4) and homogenised with dounce homogeniser. The protein concentration was determined using the Pierce™ BCA Protein Assay Kit according to kit manual, and the membrane preparation was adjust to the desired protein concentration with membrane buffer and aliquoted into pre-cooled tubes, snap-frozen in liquid nitrogen, and stored at −80° C.
CCK receptor binding assays were performed in 96-well Optiplates (Cat #6005290, PerkinElmer, Waltham, Mass., USA) in a total volume of 200 μl per well. CCK derivatives in 80% DMSO stock solutions of 800 μM were serially diluted […] in assay buffer (50 mM Tris/HCl, 4.5 mM MgCl2, […], 0.02% Tween 20, 0.25% ovalbumin, 0.1% pluronic F-68, pH 7.4) to final assay concentrations ranging from 10^−5 M (ten μM) to 10^−12 M (one pM).
Fifty μl of reference or test compounds were added to the Optiplates (using technical duplicates, i.e. two wells of each sample, one data point being the average of two wells), followed by addition of 150 μl of the mixture of SPA bead, radio ligand, and plasma membrane. The plates were sealed and incubated in the dark at +22° C. for 2 hours on a IKA MTS plate shaker (IKA-Werke D-79219 Staufen) set at 300 rpm and thereafter centrifuged at 1500 rpm for 10 minutes in a Heraeus Multifuge 3s centrifuge. SPA bead light emission was measured in a TopCount NXT (PerkinElmer) for 2 min/well after a delay of 60 min.
As a measure of compound affinity, calculations were performed in order to determine the half maximal inhibitory concentration (the IC50 value).
The data from the TopCounter were given as counts per minute (CPM). The CPM was plotted as a function of the concentration of compound. Dose-response curves were obtained, and IC50 values were calculated, by a nonlinear three-parameter logistic equation (log(agonist) vs response) with hillslope=−1, and shared top and bottom using the software programme GraphPad Prism v 6.0 (Graph Pad software, La Jolla, Calif., USA). The highest dose tested was 10^−5 M (1×10^7 pM).
The preference of a specific compound for the CCK-1 receptor, or the CCK-1R selectivity, may be defined as IC50 (CCK-2R)/IC50 (CCK-1R).
A minimum of three biological replicates was measured for each test compound on separate assay plates.

[4] = molecular target: T2, human cholecystokinin-2 receptor (CCK-2R); assay: In vitro potency on CCK-2R, whole cell functional assay (IP1 accumulation, IP-One HTRF); assay type: cell-based
[5] = ratio of functional EC50 values, >1 = preference for CCK-1R
[6] = 1321-N1 cells stably expressing CCK-1R, IP1 accumulation, average of min. three replicates, read-out: EC50 (CCK-1R)

CCK-1R binding selectivity (IC50 (CCK-2R)/IC50 (CCK-1R)) [3] | CCK-1R selectivity (EC50 (CCK-2R)/EC50 (CCK-1R)) [1, 5] | EC50 [1, 6] | IC50 ([3]; displacement of [125I]-CCK-8s, plasma membranes of 1321-N1 cells expressing CCK-1R, read-out: IC50 (CCK-1R)) | EC50 ([4]; 1321-N1 cells stably expressing CCK-2R, IP1 accumulation, highest dose tested 1×10^6 pM, read-out: EC50 (CCK-2R)) | SMILES | EC50 [1] | IC50 [2] | IC50 [3] | EC50 [4] | CCK-1R selectivity (EC50 (CCK-2R)/EC50 (CCK-1R)) [1]
82000 | 3000 | 0.31 nM | – | – | CCCC[C@H](NC(=O)[C@H](Cc1c[nH]c2ccccc12)NC(=O)CNC(=O)[C@H](CO)NC(=O)[C@H](Cc1ccc(OS(=O)(=O)O)cc1)NC(=O)[C@H](CC(=O)O)NC(=O)COCCOCCNC(=O)COCCOCCNC(=O)CC[C@H](NC(=O)CCCCCCCCCCCCCCCCC(=O)O)C(=O)O)C(=O)N(C)[C@H](CC(=O)O)C(=O)N(C)[C@@H](Cc1ccccc1)C(N)=O [Example 45, 2-[2-[2-[[2-[2-[2-[[(4S)-4-Carboxy-4-(17-carboxyheptadecanoylamino)butanoyl]amino]ethoxy]ethoxy]acetyl]amino]ethoxy]ethoxy]acetyl-Asp-sTyr-Ser-Gly-Trp-Nle-DMeAsp-MePhe-amide] ({C18 diacid-γGlu-AEEA-AEEA}-D[sY]SGW[Nle][dNMeD][NMeF]-NH2) | – | – | – | – | –
4100 | 440 | 0.22 nM | – | – | CCCC[C@H](NC(=O)[C@H](Cc1c[nH]c2ccccc12)NC(=O)CNC(=O)[C@H](C)NC(=O)[C@H](Cc1ccc(OS(=O)(=O)O)cc1)NC(=O)[C@H](CC(=O)O)NC(=O)COCCOCCNC(=O)COCCOCCNC(=O)CC[C@H](NC(=O)CCCCCCCCCCCCCCCCC(=O)O)C(=O)O)C(=O)N(C)[C@H](CC(=O)O)C(=O)N(C)[C@@H](Cc1ccccc1)C(N)=O [Example 46, 2-[2-[2-[[2-[2-[2-[[(4S)-4-Carboxy-4-(17-carboxyheptadecanoylamino)butanoyl]amino]ethoxy]ethoxy]acetyl]amino]ethoxy]ethoxy]acetyl-Asp-sTyr-Ala-Gly-Trp-Nle-DMeAsp-MePhe-amide] ({C18 diacid-γGlu-AEEA-AEEA}-D[sY]AGW[Nle][dNMeD][NMeF]-NH2) | – | – | – | – | –

Second part, the compound before the results:

SMILES | CCK-1R binding selectivity (IC50 (CCK-2R)/IC50 (CCK-1R)) [3] | CCK-1R selectivity (EC50 (CCK-2R)/EC50 (CCK-1R)) [1, 5] | EC50 [1, 6] | IC50 ([3]; displacement of [125I]-CCK-8s, plasma membranes of 1321-N1 cells expressing CCK-1R, read-out: IC50 (CCK-1R)) | EC50 ([4]; 1321-N1 cells stably expressing CCK-2R, IP1 accumulation, highest dose tested 1×10^6 pM, read-out: EC50 (CCK-2R)) | EC50 [1] | IC50 [2] | IC50 [3] | EC50 [4] | CCK-1R selectivity (EC50 (CCK-2R)/EC50 (CCK-1R)) [1]
CCCC[C@H](NC(=O)[C@H](Cc1c[nH]c2ccccc12)NC(=O)CNC(=O)[C@H](CC(C)C)NC(=O)[C@H](Cc1ccc(CS(=O)(=O)O)cc1)NC(=O)[C@H](CC(=O)O)NC(=O)COCCOCCNC(=O)COCCOCCNC(=O)CC[C@H](NC(=O)CCCCCCCCCCCCCCC(=O)O)C(=O)O)C(=O)N(C)[C@H](CC(=O)O)C(=O)N(C)[C@@H](Cc1ccccc1)C(N)=O [Example 6, 2-[2-[2-[[2-[2-[2-[[(4S)-4-Carboxy-4-(15-carboxypentadecanoylamino)butanoyl]amino]ethoxy]ethoxy]acetyl]amino]ethoxy]ethoxy]acetyl-Asp-Phe(4-sulfomethyl)-Leu-Gly-Trp-Nle-DMeAsp-MePhe-amide] ({C16 diacid-γGlu-AEEA-AEEA}-D[Phe(4-CH2SO3H)]LGW[Nle][dNMeD][NMeF]-NH2) | – | – | – | – | – | 0.2 nM | > 10000 nM | 0.2 nM | > 1000 nM | –
CC(C)C[C@H](NC(=O)[C@H](Cc1ccc(OS(=O)(=O)O)cc1)NC(=O)[C@H](CC(=O)O)NC(=O)COCCOCCNC(=O)COCCOCCNC(=O)CC[C@H](NC(=O)CCCCCCCCCCCCCCCCC(=O)O)C(=O)O)C(=O)NCC(=O)N[C@@H](Cc1c[nH]c2ccccc12)C(=O)N[C@H](C(=O)N(C)[C@H](CC(=O)O)C(=O)N(C)[C@@H](Cc1ccccc1)C(N)=O)C(C)C [Example 14, 2-[2-[2-[[2-[2-[2-[[(4S)-4-Carboxy-4-(17-carboxyheptadecanoylamino)butanoyl]amino]ethoxy]ethoxy]acetyl]amino]ethoxy]ethoxy]acetyl-Asp-sTyr-Leu-Gly-Trp-Val-DMeAsp-MePhe-amide] ({C18 diacid-γGlu-AEEA-AEEA}-D[sY]LGWV[dNMeD][NMeF]-NH2) | 21000 | – | – | – | – | 0.14 nM | 6400 nM | 0.31 nM | 730 nM | 5100
CCCC[C@H](NC(=O)[C@H](Cc1c[nH]c2ccccc12)NC(=O)CNC(=O)[C@H](Cc1ccccc1)NC(=O)[C@H](Cc1ccc(OS(=O)(=O)O)cc1)NC(=O)[C@H](CC(=O)O)NC(=O)COCCOCCNC(=O)COCCOCCNC(=O)CC[C@H](NC(=O)CCCCCCCCCCCCCCCCC(=O)O)C(=O)O)C(=O)N(C)[C@H](CC(=O)O)C(=O)N(C)[C@@H](Cc1ccccc1)C(N)=O [Example 44, 2-[2-[2-[[2-[2-[2-[[(4S)-4-Carboxy-4-(17-carboxyheptadecanoylamino)butanoyl]amino]ethoxy]ethoxy]acetyl]amino]ethoxy]ethoxy]acetyl-Asp-sTyr-Phe-Gly-Trp-Nle-DMeAsp-MePhe-amide] ({C18 diacid-γGlu-AEEA-AEEA}-D[sY]FGW[Nle][dNMeD][NMeF]-NH2) | 87000 | 960 | – | – | – | – | – | – | – | –
CCCC[C@H](NC(=O)[C@H](Cc1ccc(CS(=O)(=O)O)cc1)NC(=O)C[C@H](N)C(=O)O)C(=O)NCC(=O)N[C@@H](Cc1c[nH]c2ccccc12)C(=O)N[C@@H](CCCC)C(=O)N(C)[C@H](CC(=O)O)C(=O)N(C)[C@@H](Cc1ccccc1)C(N)=O [Example 75, bAsp-Phe(4-sulfomethyl)-Nle-Gly-Trp-Nle-DMeAsp-MePhe-amide] (βAsp-[Phe(4-CH2SO3H)][Nle]GW[Nle][dNMeD][NMeF]-NH2) | 59000 | – | 0.19 nM | 0.049 nM | > 1000 nM | – | – | – | – | –
